The values below come from ChEMBL document CHEMBL1145695, “Biologically active acylglycerides from the berries of saw-palmetto (Serenoa repens)” (J Nat Prod, 1997).

Each structure is given as a SMILES string. Converted amounts (≈) assume the structure as drawn.

One series has as its system A498. Put plainly: Cytotoxicity against human A498 cells after 7 days by MTT assay. Format: functional. The settings on record: A498, 168 h, read-out: ED50 (the source's name). In general terms: Tetrazolium dyes change colour on reduction, which living cells bring about.
The test system of a further series is PC-3. Put plainly: Cytotoxicity against human PC3 cells after 7 days by MTT assay. Format: functional. The note with it: PC-3, 168 h, read-out: ED50 (the source's name).
For another series, the system named is MIA PaCa-2. Put plainly: Cytotoxicity against human MIAPaCa2 cells after 7 days by MTT assay. The format is functional. The settings on record: MIA PaCa-2, 168 h, read-out: ED50 (the source's name).
Series [1] can be described thus: Toxicity against brine shrimp. The format is organism-based. The note with it: artemia, in vivo.

With `COc1cccc2c1C(=O)c1c(O)c3c(c(O)c1C2=O)C[C@@](O)(C(=O)CO)C[C@@H]3O[C@H]1C[C@H](N)[C@H](O)[C@H](C)O1` [DOXORUBICIN], the EC50 with A498 was determined as 0.0122 µg/mL (≈ 0.0224 µM); in the series on PC-3, 0.0119 µg/mL (≈ 0.0219 µM); in the series on MIA PaCa-2, 0.0392 µg/mL (≈ 0.0721 µM).

For orientation: LC50 means the concentration that kills 50% of the test population. In series [1], `CCCCCCCCCCCCCC(=O)OCC(O)CO` (stereo unspecified) gave an LC50 of 53.3 µg/mL (≈ 176 µM). The EC50 with A498 worked out at 3.58 µg/mL (≈ 11.8 µM); with PC-3, 8.84 µg/mL (≈ 29.2 µM); with MIA PaCa-2, 1.87 µg/mL (≈ 6.18 µM).

In turn, `CCCCCCCCCCCC(=O)OCC(O)CO` (stereo unspecified) [GLYCEROL MONOLAURATE] registered an LC50 in series [1] of 79.2 µg/mL (≈ 289 µM). In addition, the results for the EC50 in the series on A498, with PC-3 and with MIA PaCa-2 were 3.77 µg/mL (≈ 13.7 µM), 23.3 µg/mL (≈ 84.8 µM) and 2.33 µg/mL (≈ 8.49 µM), respectively.
